One data set relates to HBV DNA. The data set is described as follows: Antiviral activity: inhibition of HBV DNA in supernatant of HepG2.2.15 cells (dot blot hybridization). The settings on record: for IC50: Hepatitis B virus, HepG2.2.15 cells, 8 days (2 x 4 days) incubation, read-out: IC50 (Inhibitory effect on HBV DNA); for SI: selectivity index, TC50 against IC50, HepG2.2.15 cells. Type of data set: cell-based, hepatitis B virus. Here is the method:
The antiviral activity of the compounds according to the present invention was tested following the methods described by Sells et al. (M. A. Sells, M. L. Chen, g. Acs, Proc. Natl. Acad. Sci., 1987, 84, 1005-1009) and Korba et al., (B. E. Korba, J. L. Gerin, Antiviral Research, 1992, 19. 55-70).
(§1) The antiviral tests were carried out in 96-well microtitre plates. Only growth medium and HepG2.2.15 cells were added to the first vertical row of the plate, which row severed as a blank control.
(§2) Stock solutions of the test compounds (50 mM) were initially dissolved in DMSO, and further dilutions were prepared in the growth medium of HepG2.2.15. The compounds according to the present invention, usually in a test concentration of 100 μg/ml (1st test concentration), were in each case pipetted into the second vertical test row of the microtitre plate and subsequently diluted by a factor of 2 each time, up to 2^10-fold, using growth medium plus 2% of foetal calf serum (volume 25 μl).
(§3) 225 μl of a HepG2.2.15 cell suspension (5×10^4 cells/ml) in growth medium plus 2% foetal calf serum were then added to each well of the microtitre plate.
(§4) The test batch was incubated at 37° C., 5% CO2 for 4 days. The supernatant was subsequently siphoned off and discarded, and 225 μl of freshly prepared growth medium were added to the wells. Once more, the compounds according to the present invention were added, in a volume 25 μl. The batches were incubated fro another 4 days.
The supernatants were subsequently harvested and, by means of reduced pressure, siphoned onto 96-well dot blot chambers covered with a nylon membrane (in accordance with the specification provided by the manufacturer).
After transfer of the supernatants onto the nylon membrane of the blot apparatus (see above), the supernatants of the HepG2.2.15 cells were denatured (1.5 M NaCl/0.5 N NaOH), neutralized (3 M […]/0.5 M Tris HCl, pH 7.5) and washed (2×SSC). By incubation of the filters at 120° C. for 2-4 hours, the DNA was subsequently baked onto the membrane.
The viral DNA of the treated HEpG2.2.15 cells on the nylon filter membrane was usually detected using non-radioactive digoxygenin-labelled hepatitis B-specific DNA probes which were in each case in accordance with the specifications of the manufacturer labelled with digoxygenin, purified and used for hybridization.
Briefly speaking, the prehybridization and hybridization were carried out in 5×SSC, 1×blocking reagent, 0.1% N-lauroylsacosine, 0.02% SDS and 100 μg of DNA from herring sperm. The prehybridization was carried out at 60° C. for 30 minutes and the specific hybridization was carried out using 20 to 40 ng/ml of the digoxygenated denatured HBV-specific DNA (14 hours, 60° C.). The fillers were subsequently washed, and then determination of HBV DNA by digoxygenin antibodies was carried out.
The digoxygenin-labelled DNA was detected immunologically in accordance with the specifications of the manufacturer.
Briefly speaking, the fillers were washed and prehybridized in a blocking agent (in accordance with the specifications of the manufacturer). They were subsequently hybridized for 30 minutes using an anti-DIG antibody linked to alkaline phosphatase. After a washing step, the substrate of alkaline phosphatase, CSPD, was added, incubated with the filters for 5 minutes, subsequently wrapped in plastic film and incubated at 37° C. for a further 15 minutes. The chemiluminescene of the Hepatitis B-specific DNA signals was visualized by exposition of the filters on an X-ray film (incubation, depending on the signal strength: 10 minutes to 2 hours). The half-maximum inhibitory concentration (IC50) was determined.
The half-maximum inhibitory concentration (IC50) means the concentration at which the hepatitis B-specific band was reduced by 50% in comparison with an untreated sample by the compound according to the present invention.

The nature of data set [1]: Cytotoxicity in HepG2.2.15 cells (cell morphology, Reed & Muench). The data set is classed as cell-based. Particulars: human, pathological changes observed by microscope after 8 days, read-out: TC50. The protocol:
as §1, §2, §3, §4
Before the supernatants were harvested for determining the antiviral effect, the HePG2.2.15 cells were examined under the light microscope or by biochemical detection methods (for example Alamar Blue staining or Trypan Blue staining) for cytotoxic changes.
Substances-induced cytotoxic or cytostatic changes in the HepG2.2.15 cells were determined as changes in the cell morphology, for example under a light microscope. Such substance-induced changes of the HepG2.2.15 cells in comparison with untreated cells was apparent, for example, as cell lysis, vacuolization changed cell morphology. The pathological changes were observed by microscope after 8 days as index, a complete destroy being indicated as 4, 75% as 3, 50% as 2, 25% as 1, and no pathological change as 0. The average pathological change degree and inhibited percentages at various concentration were calculated, and a half-maximum toxic concentration (TC50) and a maximum non-toxic concentration […] were determined according to Reed & Muench methods.
TC50 means the concentration at which 50% of the cells have a morphology which is […] to the corresponding cell control by the compounds according to the present invention.

A short description of data set [2]: Solubility of the hydrochloride solid in solvents. Type of data set: physicochemical. Here is the method: 0.18 g of the target compound obtained in Example 5 was dissolved in 2 ml of anhydrous ethanol, a solution of hydrogen chloride in ethyl-ether was added dropwise to precipitate a solid, and filtered to give 0.19 g of an off-white powdered solid.

The results in this text go back to patent US8802669B2, “Dihydropyrimidine compounds and preparation methods, pharmaceutical compositions and uses thereof” (Institute of Pharmacology and Toxicology Academy of …, priority 2009, dated 2014).

The structures appear in SMILES notation.

Regarding `CCOC(=O)C1=C(CN2CCOCC2)N=C(c2c(F)cc(F)cc2N2CCOCC2)NC1c1ccc(F)cc1Cl` (stereo not drawn) [Example 13, ethyl 2-[2,4-difluoro-6-(morpholin-1-yl)phenyl]-4-(2-chlor-4-fluorophenyl)-6-(morpholine-1-ylmethyl)-1,4-dihydropyrimidine-5-carboxylate], in the data set with HBV DNA, the IC50 was 4.4 µM and the SI is 12.72. The CC50 at 8 days in data set [1] was determined as 55 µM.
`CCOC(=O)C1=C(CN2CCN(CC)CC2)NC(c2c(F)cc(F)cc2F)=NC1c1ccc(F)cc1Cl` (stereo not drawn) [Example 8, ethyl 2-(2,4,6-trifluorophenyl)-4-(2-chloro-4-fluorophenyl)-6-(4-ethylpiperazin-1-ylmethyl)-1,4-dihydropyrimidine-5-carboxylate]: in the data set with HBV DNA, the IC50 was 6.7 µM and the SI is reported as 6.16. In data set [1], the CC50 at 8 days was 41 µM.
With `CCOC(=O)C1=C(CN2CCOCC2)NC(c2c(F)cc(F)cc2F)=NC1c1ccc(F)cc1Cl.Cl` (stereo not drawn) [Example 18, ethyl 2-(2,4,6-trifluorophenyl)-4-(2-chloro-4-fluorophenyl)-6-(morpholin-1-ylmethyl)-1,4-dihydropyrimidine-5-carboxylate hydrochloride], in the data set on HBV DNA, the IC50 was 2.4 µM and the SI is 13.37. In data set [1], the CC50 at 8 days came to 31 µM. Further, the “solubility in dichloromethane, ethyl acetate, acetone, and the like” value in data set [2] (dichloromethane, ethyl acetate, acetone) was “insoluble”. Besides, the “solubility in methanol and ethanol” value in data set [2] (methanol and ethanol) is “soluble slightly”. Besides, the solubility in water entry in data set [2] (water) is recorded as “greatly soluble”.
Regarding `CCOC(=O)C1=C(CN(CCO)CCO)NC(c2c(F)cc(F)cc2F)=NC1c1ccc(F)cc1Cl` (stereo not drawn) [Example 15, ethyl 2-(2,4,6-trifluorophenyl)-4-(2-chloro-4-fluorophenyl)-6-diethanolaminomethyl-1,4-dihydropyrimidine-5-carboxylate], in the data set on HBV DNA, the IC50 was found to be 6.7 µM and the SI is on record as 8.11. Also, the CC50 at 8 days in data set [1] was 54 µM.
